{"source": "patent US20030236175A1", "about": "“Process for well fluids base oil via metathesis of alpha-olefins” (priority 2002, published 2003)", "system": "leptocheirus plumulosus", "assay_type": "in vivo", "source_text": "This protocol uses leptocheirus plumulosus in a 10-day sediment toxicity test using a reference standard C16-18 IO (internal olefin) (sometimes also designated as C16-C18 IO, C1618 IO, or C16-18 IO) having approximately 65% C16 and 35% C18 olefin.", "data": [{"smiles": "CCCCCCCCC=CCCCCCCCC", "note": "[Example 11, 9-octadecene]", "values": [{"measurement": "Toxicity, mg/kg", "setting": "LC50, 10-day sediment toxicity test, leptocheirus plumulosus", "result": "11,279 mg/kg"}, {"measurement": "Toxicity ratio", "setting": "ratio of LC50 values, sample vs reference standard C16-18 IO (Equation 1), passing <= 1.0", "result": 0.63}]}]}
